Laboratory results taken from US9849130B2 (KamTek, Inc., priority 2014, dated 2017).
Converted amounts (≈) assume the structure as drawn. “Also recorded” adds a separate entry of the source. Like-named read-outs stand apart in the source and are kept apart here.

How the values were obtained:
CD strains = experiment: In vitro activity of CFM + additional antimicrobial agent against CD (MIC alone/combination, FIC, ΣFIC); assay type: cell-based, Clostridium difficile; settings: CD strain NR32888
Escherichia coli strains = experiment: MIC by microdilution in Mueller-Hinton broth against Escherichia coli strains; assay type: cell-based; settings: for MIC: Escherichia coli, Mueller-Hinton broth, read-out: MIC
Enterococcus faecalis = experiment: MIC by microdilution in Mueller-Hinton broth against Enterococcus faecalis strains; assay type: cell-based; settings: Enterococcus faecalis
Enterococci faecium = experiment: MIC by microdilution in Mueller-Hinton broth against Enterococci faecium strains; assay type: cell-based, Enterococcus faecium; settings: Enterococcus faecium, Mueller-Hinton broth, read-out: MIC
[1] = test system: Staphylococcus aureus strains; experiment: MIC by microdilution in Mueller-Hinton broth against Staphylococcus aureus strains; assay type: cell-based; settings: Staphylococcus aureus
Bacteroides Strains = experiment: MIC by microdilution in Brucella broth against Bacteroides strains; assay type: cell-based, Bacteroides spp.
Fusobacterium = experiment: MIC by microdilution in Brucella broth against Fusobacterium; assay type: cell-based, Fusobacterium spp.; settings: Brucella broth, read-out: MIC
Lactobacillus strains = experiment: MIC against Lactobacillus strains; assay type: cell-based, Lactobacillus spp.; settings: broth microdilution, BHI with 0.02% Tween 80, pH 6.0, read-out: MIC
[2] = test system: Lachnospiraceae and related bacterial strains; experiment: MIC against Lachnospiraceae and related bacterial strains; assay type: cell-based, Lachnospiraceae spp.

CC(C)N=c1cc2n(-c3ccc(Cl)cc3)c3ccccc3nc-2cc1Nc1ccc(Cl)cc1 [CFM, 3-(p-chloroanilino)-10-(p-chlorophenyl)-2,10-dihydro-2-iso-propyliminophenazine]
MIC combination (CD strains; Test 20, CFM + VAN): 0.062 µg/mL | ΣFIC (CD strains; Test 20, sum for combination CFM + VAN): 0.75 | FIC (CD strains; Test 21, CFM + MET): 0.031 | MIC combination (CD strains; Test 21, CFM + MET): 0.0078 µg/mL | ΣFIC (CD strains; Test 21, sum for combination CFM + MET): 0.28 | activity against E. coli (in words) (Escherichia coli strains): relatively inactive; also recorded: not active | MIC (Escherichia coli strains; Escherichia coli strain NR 6): > 32 µg/mL | MIC (Escherichia coli strains; Escherichia coli strain NR 8): > 32 µg/mL | MIC (Escherichia coli strains; Escherichia coli strain NR 96): > 32 µg/mL | MIC (Escherichia coli strains; Escherichia coli strain NR 104): > 32 µg/mL | MIC (Escherichia coli strains; Escherichia coli strain NR 17626): > 32 µg/mL | MIC (Escherichia coli strains; Escherichia coli strain NR 17627): > 32 µg/mL | MIC (Escherichia coli strains; Escherichia coli strain NR 17633): > 32 µg/mL | MIC (Escherichia coli strains; Escherichia coli strain NR 17647): > 32 µg/mL | MIC (Escherichia coli strains; Escherichia coli strain NR 17650): > 32 µg/mL | MIC (Escherichia coli strains; Escherichia coli strain NR 17661): > 32 µg/mL | MIC (Enterococcus faecalis; E. faecalis NR 31884, read-out: MIC): 32 µg/mL (≈ 67.6 µM) | MIC (Enterococcus faecalis; E. faecalis NR 31885, read-out: MIC): 32 µg/mL (≈ 67.6 µM) | MIC (Enterococcus faecalis; E. faecalis NR 31886, read-out: MIC): 32 µg/mL (≈ 67.6 µM) | MIC (Enterococcus faecalis; E. faecalis NR 31887, read-out: MIC): 16 µg/mL (≈ 33.8 µM) | MIC (Enterococcus faecalis; E. faecalis NR 31888, read-out: MIC): 32 µg/mL (≈ 67.6 µM) | MIC (Enterococci faecium; E. faecium NR 31903): 4 µg/mL (≈ 8.45 µM) | MIC (Enterococci faecium; E. faecium NR 31909): 2 µg/mL (≈ 4.22 µM) | MIC (Enterococci faecium; E. faecium NR 31912): 2 µg/mL (≈ 4.22 µM) | MIC (Enterococci faecium; E. faecium NR 31915): 16 µg/mL (≈ 33.8 µM) | MIC (Enterococci faecium; E. faecium NR 31916): 8 µg/mL (≈ 16.9 µM) | MIC ([1]; Staphylococcus aureus strain NR 10129, read-out: MIC): 16 µg/mL (≈ 33.8 µM) | MIC ([1]; Staphylococcus aureus strain NR 10186, read-out: MIC): 2 µg/mL (≈ 4.22 µM) | MIC ([1]; Staphylococcus aureus strain NR 10187, read-out: MIC): > 32 µg/mL | MIC ([1]; Staphylococcus aureus strain NR 10188, read-out: MIC): 8 µg/mL (≈ 16.9 µM) | MIC ([1]; Staphylococcus aureus strain NR 10189, read-out: MIC): 8 µg/mL (≈ 16.9 µM) | MIC ([1]; Staphylococcus aureus strain NR 10191, read-out: MIC): 4 µg/mL (≈ 8.45 µM) | MIC ([1]; Staphylococcus aureus strain NR 10192, read-out: MIC): 8 µg/mL (≈ 16.9 µM) | MIC ([1]; Staphylococcus aureus strain NR 10193, read-out: MIC): 4 µg/mL (≈ 8.45 µM) | MIC ([1]; Staphylococcus aureus strain NR 10194, read-out: MIC): 4 µg/mL (≈ 8.45 µM) | MIC ([1]; Staphylococcus aureus strain NR 10198, read-out: MIC): 16 µg/mL (≈ 33.8 µM) | MIC (Bacteroides Strains; B. caccae HM728, read-out: MIC): 1 µg/mL (≈ 2.11 µM) | MIC (Bacteroides Strains; B. eggerthii HM210, read-out: MIC): 2 µg/mL (≈ 4.22 µM) | MIC (Bacteroides Strains; B. fragilis HM709, read-out: MIC): 4 µg/mL (≈ 8.45 µM) | MIC (Bacteroides Strains; B. fragilis HM710, read-out: MIC): 2 µg/mL (≈ 4.22 µM) | MIC (Bacteroides Strains; B. fragilis HM714, read-out: MIC): 2 µg/mL (≈ 4.22 µM) | MIC (Bacteroides Strains; B. ovatus HM222, read-out: MIC): 0.25 µg/mL (≈ 0.528 µM) | MIC (Bacteroides Strains; B. stercoris HM1036, read-out: MIC): 0.5 µg/mL (≈ 1.06 µM) | MIC (Bacteroides Strains; Bacteroides, B. spp. HM18): 4 µg/mL (≈ 8.45 µM) | MIC (Bacteroides Strains; Bacteroides, B. spp. HM19): 1 µg/mL (≈ 2.11 µM) | MIC (Bacteroides Strains; Bacteroides, B. spp. HM23, read-out: MIC): 2 µg/mL (≈ 4.22 µM) | MIC (Bacteroides Strains; Bacteroides, B. spp. HM27): 1 µg/mL (≈ 2.11 µM) | MIC (Bacteroides Strains; Bacteroides, B. spp. HM58): 1 µg/mL (≈ 2.11 µM) | MIC (Fusobacterium; F. nucleatum HM-75): > 32 µg/mL | MIC (Fusobacterium; F. nucleatum HM-260): > 32 µg/mL | MIC (Fusobacterium; F. nucleatum HM-992): > 32 µg/mL | MIC (Fusobacterium; F. nucleatum HM-993): 2 µg/mL (≈ 4.22 µM) | MIC (Fusobacterium; F. nucleatum HM-994): 32 µg/mL (≈ 67.6 µM) | MIC (Fusobacterium; F. nucleatum HM-995): > 32 µg/mL | MIC (Fusobacterium; F. nucleatum HM-996): 32 µg/mL (≈ 67.6 µM) | MIC (Fusobacterium; F. nucleatum HM-997): > 32 µg/mL | MIC (Fusobacterium; Fusobacterium, Fusobacterium sp. HM 42): > 32 µg/mL | MIC (Fusobacterium; Fusobacterium, Fusobacterium sp. HM 57): > 32 µg/mL | MIC (Fusobacterium; Fusobacterium, Fusobacterium sp. HM-556): 16 µg/mL (≈ 33.8 µM) | MIC (Fusobacterium; Fusobacterium, Fusobacterium sp. HM-758): > 32 µg/mL | MIC (Fusobacterium; Fusobacterium, Fusobacterium sp. HM-871): 32 µg/mL (≈ 67.6 µM) | MIC (Fusobacterium; Fusobacterium, Fusobacterium sp. HM-874): > 32 µg/mL | MIC (Fusobacterium; Fusobacterium, Fusobacterium sp. HM-875): 32 µg/mL (≈ 67.6 µM) | MIC (Lactobacillus strains; Lactobacillus, pH 6, Lactobacillus jhonsonii HM-643): > 32 µg/mL | MIC (Lactobacillus strains; Lactobacillus, pH 6, Lactobacillus sp. HM-228): 1 µg/mL (≈ 2.11 µM) | MIC (Lactobacillus strains; Lactobacillus, pH 6, Lactobacillus sp. HM-478): > 32 µg/mL | MIC (Lactobacillus strains; pH 6, Lactobacillus crispatus HM-637): 4 µg/mL (≈ 8.45 µM) | MIC (Lactobacillus strains; pH 6, Lactobacillus gasseri HM-104): > 32 µg/mL | MIC (Lactobacillus strains; pH 6, Lactobacillus iners HM-126): 2 µg/mL (≈ 4.22 µM) | MIC (Lactobacillus strains; pH 6, Lactobacillus jensenii HM-105): > 32 µg/mL | MIC (Lactobacillus strains; pH 6, Lactobacillus reuteri HM-102): > 32 µg/mL | MIC (Lactobacillus strains; pH 6, Lactobacillus rhamnosus HM-106): > 32 µg/mL | MIC (Lactobacillus strains; pH 6, Lactobacillus vaginalis HM-405): 2 µg/mL (≈ 4.22 µM) | MIC [2]: 0.125 µg/mL (≈ 0.264 µM) | MIC ([2]; Clostridiales bacterium, Clostridiales bacterium HM-84, broth microdilution, brucella broth, read-out: MIC): ≤ 0.031 µg/mL | MIC ([2]; Clostridiales bacterium, Clostridiales bacterium HM-182, broth microdilution, brucella broth, read-out: MIC): 0.25 µg/mL (≈ 0.528 µM) | MIC ([2]; Eubacterium sp. HM-178, broth microdilution, brucella broth): 0.125 µg/mL (≈ 0.264 µM) | MIC ([2]; Lachnospiraceae sp. HM-7, broth microdilution, brucella broth, read-out: MIC): ≤ 0.031 µg/mL | MIC ([2]; Lachnospiraceae sp. HM-150, broth microdilution, brucella broth, read-out: MIC): 0.25 µg/mL (≈ 0.528 µM) | MIC ([2]; Lachnospiraceae sp. HM-153, broth microdilution, brucella broth): 0.125 µg/mL (≈ 0.264 µM) | MIC ([2]; Lachnospiraceae sp. HM-154, broth microdilution, brucella broth, read-out: MIC): 0.5 µg/mL (≈ 1.06 µM) | MIC ([2]; Lachnospiraceae sp. HM-161, broth microdilution, brucella broth, read-out: MIC): 0.25 µg/mL (≈ 0.528 µM) | MIC ([2]; Lachnospiraceae sp. HM-480, broth microdilution, brucella broth, read-out: MIC): 0.062 µg/mL (≈ 0.131 µM) | MIC ([2]; Lachnospiraceae sp. HM-558, broth microdilution, brucella broth, read-out: MIC): 0.062 µg/mL (≈ 0.131 µM) | MIC ([2]; Lachnospiraceae sp. HM-768, broth microdilution, brucella broth, read-out: MIC): ≤ 0.031 µg/mL | MIC ([2]; Lachnospiraceae sp. HM-868, broth microdilution, brucella broth, read-out: MIC): 2 µg/mL (≈ 4.22 µM) | MIC ([2]; Peptostreptococcaceae sp. HM-766, broth microdilution, brucella broth, read-out: MIC): 1 µg/mL (≈ 2.11 µM) | susceptibility of Lachnospiraceae and related organisms (in words) ([2]; most of the members of this family): susceptible | MIC (C. difficile VPI10463; Clostridioides difficile, VPI10463): 0.125 µg/mL (≈ 0.264 µM) | MIC (C. difficile VPI10463; Clostridioides difficile, VPI10463, Expt. 1, fecal extract (human feces 20% w/v in BHI), C. difficile VPI10463): 0.5 µg/mL (≈ 1.06 µM) | MIC (C. difficile VPI10463; Clostridioides difficile, VPI10463, Expt. 2, −fecal extract, C. difficile VPI10463): 0.062 µg/mL (≈ 0.131 µM) | MIC (C. difficile VPI10463; Expt. 2, +fecal extract (human feces 20% w/v in BHI), C. difficile VPI10463): 0.125 µg/mL (≈ 0.264 µM)
